The target of one assay is NAMPT (Homo sapiens (Human), UniProt P43490). Kind of assay: NAMPT biochemical inhibition assay (NMN quantified by mass spectrometry). The note with it: NAMPT biochemical inhibition; read-out: Biochem IC50.
A further assay has as its system A2780 cells. The assay is described as follows: In-vitro cell proliferation assay (SRB), A2780 cells.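 Note: viable cell number read as SRB absorbance, background from media-only wells subtracted, IC50 interpolated from percent inhibition at two bracketing compound concentrations.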 The class given is cell-based. The note with it: Homo sapiens, A2780, 72 h, read-out: A2780 IC50.

Structures are written as SMILES. Read-outs that look alike come from different tables or passages of the source.

Sequence of NAMPT (P43490 whole entry): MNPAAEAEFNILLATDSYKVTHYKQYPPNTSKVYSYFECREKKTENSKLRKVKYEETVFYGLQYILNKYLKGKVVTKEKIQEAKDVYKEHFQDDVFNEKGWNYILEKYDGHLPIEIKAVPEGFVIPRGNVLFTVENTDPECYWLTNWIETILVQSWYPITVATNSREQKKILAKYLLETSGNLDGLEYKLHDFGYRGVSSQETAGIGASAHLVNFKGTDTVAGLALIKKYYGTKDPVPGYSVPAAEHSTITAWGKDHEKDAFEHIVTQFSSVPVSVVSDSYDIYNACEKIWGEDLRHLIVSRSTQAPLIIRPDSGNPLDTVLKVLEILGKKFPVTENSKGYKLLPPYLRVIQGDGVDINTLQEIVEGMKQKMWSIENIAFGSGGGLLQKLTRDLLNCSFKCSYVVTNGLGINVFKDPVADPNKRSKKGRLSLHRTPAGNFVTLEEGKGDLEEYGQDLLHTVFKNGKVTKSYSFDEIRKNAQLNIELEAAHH

As to `O=C(NCc1ccc2ncsc2c1)c1ccc(S(=O)(=O)c2cccc(Cl)c2)cc1` [N-(1,3-benzothiazol-6-ylmethyl)-4-[(3-chlorobenzene)sulfonyl]benzamide], the IC50 on NAMPT worked out at 11400 nM; in the assay on A2780 cells (A2780 cells, 72 hours, SRB), 9.71 nM.

Regarding `O=C(NCc1cccnc1)Nc1ccc(S(=O)(=O)Nc2cccc3c2CCCC3)cc1` [3-(pyridin-3-ylmethyl)-1-{4-[(5,6,7,8-tetrahydronaphthalen-1-yl)sulfamoyl]phenyl}urea], the IC50 at NAMPT was 0.3 nM; in the assay on A2780 cells (A2780 cells, 72 hours, SRB), 45 nM.

Consider `O=C(NCc1cccnc1)Nc1ccc(S(=O)(=O)c2ccccc2F)cc1` [3-{4-[(2-fluorobenzene)sulfonyl]phenyl}-1-(pyridin-3-ylmethyl)urea], for which the IC50 at NAMPT came out at 3 nM; with A2780 cells (A2780 cells, 72 hours, SRB), 493 nM.

In the case of `Nc1cccc(CNC(=O)Nc2ccc(S(=O)(=O)c3ccccc3)cc2)c1` [1-[(3-aminophenyl)methyl]-3-[4-(benzenesulfonyl)phenyl]urea], in the assay on A2780 cells (A2780 cells, 72 hours, SRB), the IC50 was 2540 nM.

In the case of `O=C(NCc1cccnc1)Nc1ccc(S(=O)(=O)Nc2cccc(N3CCOCC3)c2)cc1` [1-(4-{[3-(morpholin-4-yl)phenyl]sulfamoyl}phenyl)-3-(pyridin-3-ylmethyl)urea], the IC50 is 6 nM at NAMPT and 103 nM in the assay with A2780 cells (A2780 cells, 72 hours, SRB).

For the compound `O=C(NCc1ccc(S(=O)(=O)N2CCCCC2)cc1)NCc1cccnc1` [3-{[4-(piperidine-1-sulfonyl)phenyl]methyl}-1-(pyridin-3-ylmethyl)urea], the IC50 in the assay on A2780 cells (A2780 cells, 72 hours, SRB) came to 547 nM.

For the compound `O=C(NCc1ccccc1F)Nc1ccc(S(=O)(=O)N2CCCCC2)cc1` [3-[(2-fluorophenyl)methyl]-1-[4-(piperidine-1-sulfonyl)phenyl]urea], in the assay with A2780 cells (A2780 cells, 72 hours, SRB), the IC50 is greater than 30000 nM.

With `O=C(NCc1ccc(F)cc1)Nc1ccc(S(=O)(=O)N2CCCCC2)cc1` [1-[(4-fluorophenyl)methyl]-3-[4-(piperidine-1-sulfonyl)phenyl]urea], the IC50 with A2780 cells (A2780 cells, 72 hours, SRB) was 25000 nM.

With `O=C(Nc1ccc(S(=O)(=O)c2ccccc2)cc1)Nc1cccnc1` [3-[4-(benzenesulfonyl)phenyl]-1-(pyridin-3-yl)urea], the IC50 in the assay on A2780 cells (A2780 cells, 72 hours, SRB) was 27500 nM.

`C[C@@H]1CN(S(=O)(=O)c2ccc(NC(=O)NCc3cccnc3)cc2)C[C@H](C)O1` [rel-3-{4-[(2R,6S)-2,6-dimethylmorpholine-4-sulfonyl]phenyl}-1-(pyridin-3-ylmethyl)urea]: the IC50 in the assay with A2780 cells (A2780 cells, 72 hours, SRB) was 13.5 nM.

With `O=C(NCc1ccccc1)Nc1ccc(S(=O)(=O)N2CCCCC2)cc1` [3-benzyl-1-[4-(piperidine-1-sulfonyl)phenyl]urea], in the assay with A2780 cells (A2780 cells, 72 hours, SRB), the IC50 was greater than 30000 nM.

Turning to `Nc1ccc(CNC(=O)Nc2ccc(S(=O)(=O)c3ccccc3)cc2)cn1` [1-[(6-aminopyridin-3-yl)methyl]-3-[4-(benzenesulfonyl)phenyl]urea], the IC50 with A2780 cells worked out at 81 nM.

On to `C[C@@H]1[C@@H](NS(=O)(=O)c2ccc(NC(=O)NCc3cccnc3)cc2)C[C@H]2C[C@@H]1C2(C)C` [3-(pyridin-3-ylmethyl)-1-(4-{[(1S,2S,3S,5R)-2,6,6-trimethylbicyclo[3.1.1]heptan-3-yl]sulfamoyl}phenyl)urea], for which, in the assay on A2780 cells (A2780 cells, 72 hours, SRB), the IC50 was determined as 96 nM.

As to `O=C(NCc1cccnc1)Nc1ccc(S(=O)(=O)c2ccc(-n3cccn3)c(F)c2)cc1` [3-(4-{[3-fluoro-4-(1H-pyrazol-1-yl)benzene]sulfonyl}phenyl)-1-(pyridin-3-ylmethyl)urea], in the assay on A2780 cells (A2780 cells, 72 hours, SRB), the IC50 turned out to be 54 nM.

Consider `O=C(NCc1cccnc1)Nc1ccc(S(=O)(=O)N2CCCCC2)cc1` [1-[4-(piperidine-1-sulfonyl)phenyl]-3-(pyridin-3-ylmethyl)urea], for which the IC50 in the assay on A2780 cells (A2780 cells, 72 hours, SRB) stood at 167 nM.

For `O=C(NCc1cccnc1)Nc1cccc(S(=O)(=O)N2CCCCC2)c1` [1-[3-(piperidine-1-sulfonyl)phenyl]-3-(pyridin-3-ylmethyl)urea], the IC50 with A2780 cells (A2780 cells, 72 hours, SRB) is greater than 30000 nM.

`O=C(NCc1cc[nH]n1)Nc1ccc(S(=O)(=O)c2ccccc2)cc1` [1-[4-(benzenesulfonyl)phenyl]-3-(1H-pyrazol-3-ylmethyl)urea]: the IC50 with A2780 cells (A2780 cells, 72 hours, SRB) is greater than 20000 nM.

Regarding `O=C(NCc1cccnc1)Nc1ccc(S(=O)(=O)N2CCC(c3ccccc3)CC2)cc1` [1-[4-(4-phenylpiperidine-1-sulfonyl)phenyl]-3-(pyridin-3-ylmethyl)urea], the IC50 on NAMPT stood at 3 nM.

Regarding `CCc1ccc(NS(=O)(=O)c2ccc(NC(=O)NCc3cccnc3)cc2)cc1` [3-{4-[(4-ethylphenyl)sulfamoyl]phenyl}-1-(pyridin-3-ylmethyl)urea], the IC50 on NAMPT is 7 nM.

Take `O=C(NCc1cccnc1)Nc1ccc(S(=O)(=O)N2CCC2)cc1` [3-[4-(azetidine-1-sulfonyl)phenyl]-1-(pyridin-3-ylmethyl)urea]: in the assay on A2780 cells (A2780 cells, 72 hours, SRB), the 50% inhibitory concentration (IC50) came to 1620 nM.

As to `CN(Cc1cccc(C(F)(F)F)c1)S(=O)(=O)c1ccc(NC(=O)NCc2cccnc2)cc1` [3-{4-[methyl({[3-(trifluoromethyl)phenyl]methyl})sulfamoyl]phenyl}-1-(pyridin-3-ylmethyl)urea], the IC50 on NAMPT worked out at 7 nM.

For the compound `O=C(NCc1cccnc1)Nc1ccc(S(=O)(=O)N2C3CCC2COC3)cc1` [1-(4-{3-oxa-8-azabicyclo[3.2.1]octane-8-sulfonyl}phenyl)-3-(pyridin-3-ylmethyl)urea], the IC50 with A2780 cells (A2780 cells, 72 hours, SRB) worked out at 287 nM.

Consider `NC(=O)C1CCN(S(=O)(=O)c2ccc(NC(=O)NCc3cccnc3)cc2)CC1` [1-[(4-{[(pyridin-3-ylmethyl)carbamoyl]amino}benzene)sulfonyl]piperidine-4-carboxamide], for which the half-inhibitory concentration (IC50) with A2780 cells (A2780 cells, 72 hours, SRB) came to 1480 nM.

With `Cn1cc(S(=O)(=O)c2ccc(NC(=O)NCc3cccnc3)cc2)cn1` [3-[4-(1-methyl-1H-pyrazole-4-sulfonyl)phenyl]-1-(pyridin-3-ylmethyl)urea], in the assay on A2780 cells (A2780 cells, 72 hours, SRB), the 50% inhibitory concentration (IC50) amounted to 247 nM.

In the case of `O=C(NCc1cccnc1)Nc1ccc(S(=O)(=O)N2CCOCC2)cc1` [1-[4-(morpholine-4-sulfonyl)phenyl]-3-(pyridin-3-ylmethyl)urea], the IC50 with A2780 cells (A2780 cells, 72 hours, SRB) was 1350 nM.

On to `CC1CCN(S(=O)(=O)c2ccc(NC(=O)NCc3cccnc3)cc2)CC1` [3-[4-(4-methylpiperidine-1-sulfonyl)phenyl]-1-(pyridin-3-ylmethyl)urea], for which the IC50 in the assay on A2780 cells (A2780 cells, 72 hours, SRB) is 254 nM.

With `CN(C)c1ccc(CNC(=O)Nc2ccc(S(=O)(=O)c3ccccc3)cc2)cn1` [3-[4-(benzenesulfonyl)phenyl]-1-{[6-(dimethylamino)pyridin-3-yl]methyl}urea], the IC50 in the assay with A2780 cells (A2780 cells, 72 hours, SRB) was 27600 nM.

In the case of `O=C(NCc1cccc(F)c1)Nc1ccc(S(=O)(=O)N2CCCCC2)cc1` [3-[(3-fluorophenyl)methyl]-1-[4-(piperidine-1-sulfonyl)phenyl]urea], the IC50 in the assay on A2780 cells (A2780 cells, 72 hours, SRB) is greater than 30000 nM.

Turning to `CN(Cc1ccc(F)cc1)S(=O)(=O)c1ccc(NC(=O)NCc2cccnc2)cc1` [3-(4-{[(4-fluorophenyl)methyl](methyl)sulfamoyl}phenyl)-1-(pyridin-3-ylmethyl)urea], the IC50 at NAMPT was found to be 3 nM.

With `O=C(NCCc1cccnc1)Nc1ccc(S(=O)(=O)N2CCCCC2)cc1` [3-[4-(piperidine-1-sulfonyl)phenyl]-1-[2-(pyridin-3-yl)ethyl]urea], in the assay on A2780 cells (A2780 cells, 72 hours, SRB), the IC50 came out at 661 nM.

For the compound `O=C(NCc1cccnc1)Nc1ccc(S(=O)(=O)Nc2cccc(Br)c2)cc1` [3-{4-[(3-bromophenyl)sulfamoyl]phenyl}-1-(pyridin-3-ylmethyl)urea], the IC50 at NAMPT amounted to 3 nM.

Regarding `Cc1cccc(NS(=O)(=O)c2ccc(NC(=O)NCc3cccnc3)cc2)c1` [3-{4-[(3-methylphenyl)sulfamoyl]phenyl}-1-(pyridin-3-ylmethyl)urea], the IC50 on NAMPT turned out to be 10 nM.

For the compound `O=C(NCc1cccnc1)Nc1ccc(S(=O)(=O)N2CCCC2)cc1` [3-(pyridin-3-ylmethyl)-1-[4-(pyrrolidine-1-sulfonyl)phenyl]urea], the IC50 in the assay on A2780 cells (A2780 cells, 72 hours, SRB) was 1400 nM.

In the case of `O=C(NCc1cccnc1)Nc1ccc(S(=O)(=O)Nc2ccccc2F)cc1` [3-{4-[(2-fluorophenyl)sulfamoyl]phenyl}-1-(pyridin-3-ylmethyl)urea], on NAMPT, the 50% inhibitory concentration (IC50) stood at 8 nM.

As for `O=C(NCc1ccc(S(=O)(=O)N2CCCCC2)cc1)Nc1cccnc1` [3-{[4-(piperidine-1-sulfonyl)phenyl]methyl}-1-(pyridin-3-yl)urea], in the assay on A2780 cells (A2780 cells, 72 hours, SRB), the half-maximal inhibitory concentration (IC50) worked out at 2260 nM.

`O=C(NCc1cccnc1)Nc1ccc(S(=O)(=O)Nc2cccc(Cl)c2)cc1` [3-{4-[(3-chlorophenyl)sulfamoyl]phenyl]-1-(pyridin-3-ylmethyl)urea]: the IC50 at NAMPT was found to be 1 nM.

With `O=C(NCc1cncc(F)c1)Nc1ccc(S(=O)(=O)N2CCCCC2)cc1` [3-[(5-fluoropyridin-3-yl)methyl]-1-[4-(piperidine-1-sulfonyl)phenyl]urea], the IC50 with A2780 cells (A2780 cells, 72 hours, SRB) came out at 752 nM.

Consider `O=C(NCc1cccnc1)Nc1ccc(S(=O)(=O)Nc2cccc(C(F)(F)F)c2)cc1` [1-(pyridin-3-ylmethyl)-3-(4-{[3-(trifluoromethyl)phenyl]sulfamoyl}phenyl)urea], for which the IC50 on NAMPT was 6 nM.

Consider `O=C(NCc1cccnc1)Nc1ccc(S(=O)(=O)c2ccccn2)cc1` [3-(pyridin-3-ylmethyl)-1-[4-(pyridine-2-sulfonyl)phenyl]urea], for which the IC50 in the assay on A2780 cells (A2780 cells, 72 hours, SRB) was found to be 869 nM.

On to `C[C@H]1CCCN(S(=O)(=O)c2ccc(NC(=O)NCc3cccnc3)cc2)C1` [3-{4-[(3S)-3-methylpiperidine-1-sulfonyl]phenyl}-1-(pyridin-3-ylmethyl)urea], for which, in the assay with A2780 cells (A2780 cells, 72 hours, SRB), the IC50 came out at 105 nM.

Take `O=C(NCc1cccnc1)Nc1ccc(S(=O)(=O)c2ccc(F)cc2Cl)cc1` [3-{4-[(2-chloro-4-fluorobenzene)sulfonyl]phenyl}-1-(pyridin-3-ylmethyl)urea]: the IC50 at NAMPT was 8 nM.

`O=C(NCc1cccnc1)Nc1ccc(C(=O)c2ccccc2)cc1` [1-(4-benzoylphenyl)-3-(pyridin-3-ylmethyl)urea]: the IC50 in the assay on A2780 cells (A2780 cells, 72 hours, SRB) is 735 nM.

Regarding `CC(C)CN(C)S(=O)(=O)c1ccc(NC(=O)NCc2cccnc2)cc1` [3-{4-[methyl(2-methylpropyl)sulfamoyl]phenyl}-1-(pyridin-3-ylmethyl)urea], the IC50 on NAMPT amounted to 7 nM.

On to `O=C(NCc1cccnc1)Nc1ccc(S(=O)(=O)N2CCCCCC2)cc1` [3-[4-(azepane-1-sulfonyl)phenyl]-1-(pyridin-3-ylmethyl)urea], for which the concentration for half-maximal inhibition (IC50) with A2780 cells (A2780 cells, 72 hours, SRB) stood at 139 nM.

For `O=C(NCc1cccnc1)Nc1ccc(S(=O)(=O)N2CCN(c3ccccc3)CC2)cc1` [1-[4-(4-phenylpiperazine-1-sulfonyl)phenyl]-3-(pyridin-3-ylmethyl)urea], on NAMPT, the IC50 amounted to 5 nM.

Broadly, the IC50 is the midpoint of a concentration-inhibition curve.

The record behind these values is US11279687B2, “Compounds and compositions for the inhibition of NAMPT” (Valo Health, Inc., priority 2010, dated 2022).
